Structures can show the parent of a compound that is named as a salt.

This test deals with T1, JH2 domain of human Tyk2 (Homo sapiens, UniProt P29597).
T1 construct: 10×His-tagged TYK2 JH2 domain (amino acid 575-876)
T1 sequence (P29597 575-876): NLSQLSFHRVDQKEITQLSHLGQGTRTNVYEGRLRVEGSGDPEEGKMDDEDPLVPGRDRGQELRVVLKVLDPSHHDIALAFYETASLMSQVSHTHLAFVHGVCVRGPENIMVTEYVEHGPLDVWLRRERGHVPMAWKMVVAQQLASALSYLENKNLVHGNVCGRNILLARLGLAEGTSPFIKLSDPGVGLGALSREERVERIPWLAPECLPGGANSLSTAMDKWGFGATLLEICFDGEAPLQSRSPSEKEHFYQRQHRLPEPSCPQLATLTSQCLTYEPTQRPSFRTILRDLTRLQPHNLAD
The experiment in a line: JH2 biochemical assay (TR-FRET probe displacement). The class given is binding. The note with it: JH2 biochemical assay. As to the method:
The inhibitory potency of compounds of the disclosure against the kinase activity of recombinantly generated JH2 domain of human Tyk2 was evaluated in a plate-based assay using a TR-FRET assay platform. Briefly, 2 nM of recombinant JH2 domain [10×His-tagged TYK2 JH2 domain (amino acid 575-876)] was combined with 2 nM probe ((S)-6-amino-9-(2-carboxy-4-((1-(3-(8-methyl-5-(methylamino)-8H-imidazo[4,5-d]thiazolo[5,4-b]pyridin-2-yl)phenyl)ethyl)carbamoyl)phenyl)-3-iminio-5-sulfo-3H-xanthene-4-sulfonate), 0.1 nM Tb-labeled anti-His antibody, and compounds of disclosure for 60 minutes. Compounds are tested at either […] top concentration, 10 points of 3-fold dilution. The TR-FRET signal […] by compounds and signal was calculated by taking the ratio of fluorescence at 520 nm and 495 nm. The data was normalized and the percent activity versus log concentration of compound was fitted with a 4-parameter logistic model to generate IC50 curves.
(In general: Time-resolved FRET reads energy transfer from a long-lived donor to a nearby acceptor.)
Compound `CC(=O)Nc1cc2c(cn1)C1(CC1)CN2c1cc(O[C@@H]2COC[C@H]2F)nc(C(C)(F)F)n1` (racemic) [Example 150, Trans-rac-N-(1′-(2-(1,1-difluoroethyl)-6-(((3RS,4R)-4-fluorotetrahydrofuran-3-yl)oxy)pyrimidin-4-yl)-1′,2′-dihydrospiro[cyclopropane-1,3′-pyrrolo[3,2-c]pyridin]-6′-yl)acetamide trifluoroacetate] returned an IC50 of 10 to 100 nM. `CC(=O)Nc1cc2c(cn1)C1(CC1)CN2c1ccnc(C2COC2)n1` [Example 3, N-(1′-(2-(oxetan-3-yl)pyrimidin-4-yl)-1′,2′-dihydrospiro[cyclopropane-1,3′-pyrrolo[3,2-c]pyridin]-6′-yl)acetamide] yielded an IC50 of 10 to 100 nM.

In the case of `CC(=O)Nc1cc2c(cn1)C1(CC1)CN2c1cc(NC(C)=O)nc(C(C)(F)F)n1` [Example 15, N-(1′-(6-acetamido-2-(1,1-difluoroethyl)pyrimidin-4-yl)-1′,2′-dihydrospiro[cyclopropane-1,3′-pyrrolo[3,2-c]pyridin]-6′-yl)acetamide], the concentration for half-maximal inhibition (IC50) was at most 10 nM.

`CC(=O)Nc1cc2c(cn1)C1(CC1)CN2c1cc(C)ncn1` [Example 27, N-(1′-(6-methylpyrimidin-4-yl)-1′,2′-dihydrospiro[cyclopropane-1,3′-pyrrolo[3,2-c]pyridin]-6′-yl)acetamide] gave an IC50 of 10 to 100 nM. Take `CC(=O)Nc1cc2c(cn1)C1(CC1)CN2c1cc(C)nc2cc(C)nn12` [Example 28, N-(1′-(2,5-dimethylpyrazolo[1,5-a]pyrimidin-7-yl)-1′,2′-dihydrospiro[cyclopropane-1,3′-pyrrolo[3,2-c]pyridin]-6′-yl)acetamide]: the IC50 is at least 1000 nM.

For `CC(=O)Nc1cc2c(cn1)CCN2c1ccnc(C(C)(F)F)n1` [Example 30, N-(1-(2-(1,1-difluoroethyl)pyrimidin-4-yl)-2,3-dihydro-1H-pyrrolo[3,2-c]pyridin-6-yl)acetamide], the half-inhibitory concentration (IC50) lay within 100 to 1000 nM. `CC(=O)Nc1cc2c(cn1)CCN2c1cccc(C2CCOC2)n1` (centres unmarked) [Example 33, N-(1-(6-(tetrahydrofuran-3-yl)pyridin-2-yl)-2,3-dihydro-1H-pyrrolo[3,2-c]pyridin-6-yl)acetamide] returned a 50% inhibitory concentration (IC50) of 10 to 100 nM. Turning to `CC(=O)Nc1cc2c(cn1)C1(CC1C)CN2c1nccc(C(C)(F)F)n1` (centres unmarked) [Example 36, N-(1′-(4-(1,1-difluoroethyl)pyrimidin-2-yl)-2-methyl-1′,2′-dihydrospiro[cyclopropane-1,3′-pyrrolo[3,2-c]pyridin]-6′-yl)acetamide], the half-maximal inhibitory concentration (IC50) lay in the range of 10 to 100 nM.

For the compound `CC(=O)Nc1cc2c(cn1)C1(CCC1)CN2c1nccc(C(C)(F)F)n1` [Example 40, N-(1′-(4-(1,1-difluoroethyl)pyrimidin-2-yl)-1′,2′-dihydrospiro[cyclobutane-1,3′-pyrrolo[3,2-c]pyridin]-6′-yl)acetamide], the IC50 is 10 to 100 nM. The result for `CC(=O)Nc1cc2c(cn1)C1(CCCC1)CN2c1nccc(C(C)(F)F)n1` [Example 43, N-(1′-(4-(1,1-difluoroethyl)pyrimidin-2-yl)-1′,2′-dihydrospiro[cyclopentane-1,3′-pyrrolo[3,2-c]pyridin]-6′-yl)acetamide] reads 100 to 1000 nM; that for `CC(=O)Nc1cc2c(cn1)C1(CCCC1)CN2c1ccnc(C(C)(F)F)n1` [Example 44, N-(1′-(2-(1,1-difluoroethyl)pyrimidin-4-yl)-1′,2′-dihydrospiro[cyclopentane-1,3′-pyrrolo[3,2-c]pyridin]-6′-yl)acetamide], 100 to 1000 nM. As to `CC(=O)Nc1cc2c(cn1)C1(CCCC1)CN2c1cccc(C(C)(F)F)n1` [Example 45, N-(1′-(6-(1,1-difluoroethyl)pyridin-2-yl)-1′,2′-dihydrospiro[cyclopentane-1,3′-pyrrolo[3,2-c]pyridin]-6′-yl)acetamide], the IC50 lay in the range of 100 to 1000 nM. `CC(=O)Nc1cc2c(cn1)C1(CCOCC1)CN2c1nccc(C(C)(F)F)n1` [Example 46, N-(1′-(4-(1,1-difluoroethyl)pyrimidin-2-yl)-1′,2,2′,3,5,6-hexahydrospiro[pyran-4,3′-pyrrolo[3,2-c]pyridin]-6′-yl)acetamide] had an IC50 of at least 1000 nM.

`CC(=O)Nc1cc2c(cn1)C1(CCOCC1)CN2c1ccnc(C(C)(F)F)n1` [Example 47, N-(1′-(2-(1,1-difluoroethyl)pyrimidin-4-yl)-1′,2,2′,3,5,6-hexahydrospiro[pyran-4,3′-pyrrolo[3,2-c]pyridin]-6′-yl)acetamide]: the 50% inhibitory concentration (IC50) was at least 1000 nM. The compound `CC(=O)Nc1cc2c(cn1)C1(CCOCC1)CN2c1cccc(C(C)(F)F)n1` [Example 48, N-(1′-(6-(1,1-difluoroethyl)pyridin-2-yl)-1′,2,2′,3,5,6-hexahydrospiro[pyran-4,3′-pyrrolo[3,2-c]pyridin]-6′-yl)acetamide] came in with an IC50 of 100 to 1000 nM. `CC(=O)Nc1cc2c(cn1)C1(CC1)CN2c1cc(C)nc(C)n1` [Example 68, N-(1′-(2,6-dimethylpyrimidin-4-yl)-1′,2′-dihydrospiro[cyclopropane-1,3′-pyrrolo[3,2-c]pyridin]-6′-yl)acetamide] displayed an IC50 of 10 to 100 nM.

On to `CC(=O)Nc1cc2c(cn1)C1(CC1)CN2c1nccs1` [Example 77, N-(1′-(thiazol-2-yl)-1′,2′-dihydrospiro[cyclopropane-1,3′-pyrrolo[3,2-c]pyridin]-6′-yl)acetamide trifluoroacetate], for which the IC50 lay in the range of 100 to 1000 nM. `CC(=O)Nc1cc2c(cn1)C1(CC1)CN2c1ncc(C)s1` [Example 78, N-(1′-(5-methylthiazol-2-yl)-1′,2′-dihydrospiro[cyclopropane-1,3′-pyrrolo[3,2-c]pyridin]-6′-yl)acetamide trifluoroacetate]: the IC50 fell in the range of 10 to 100 nM. The result for `CC(=O)Nc1cc2c(cn1)C1(CC1)CN2c1cc(C)nc(C2CC3CCC2O3)n1` (centres unmarked) [Example 102, N-(1′-(2-(7-oxabicyclo[2.2.1]heptan-2-yl)-6-methylpyrimidin-4-yl)-1′,2′-dihydrospiro[cyclopropane-1,3′-pyrrolo[3,2-c]pyridin]-6′-yl)acetamide trifluoroacetate] reads 10 to 100 nM; that for `CC(=O)Nc1cc2c(cn1)C1(CC1)CN2c1cc(C)nc(C2CCCN(C)C2)n1` (centres unmarked) [Example 117, N-(1′-(6-methyl-2-(1-methylpiperidin-3-yl)pyrimidin-4-yl)-1′,2′-dihydrospiro[cyclopropane-1,3′-pyrrolo[3,2-c]pyridin]-6′-yl)acetamide], at least 1000 nM.

In turn, `CC(=O)Nc1cc2c(cn1)C1(CC1)CN2c1cc(C)nc(C2CCCCN2C)n1` (centres unmarked) [Example 118, N-(1′-(6-methyl-2-(1-methylpiperidin-2-yl)pyrimidin-4-yl)-1′,2′-dihydrospiro[cyclopropane-1,3′-pyrrolo[3,2-c]pyridin]-6′-yl)acetamide] came in with an IC50 of at least 1000 nM. Regarding `CC(=O)Nc1cc2c(cn1)C1(CC1)CN2c1cc(C)nc(C2CCN(C(C)C)CC2)n1` [Example 121, N-(1′-(2-(1-isopropylpiperidin-4-yl)-6-methylpyrimidin-4-yl)-1′,2′-dihydrospiro[cyclopropane-1,3′-pyrrolo[3,2-c]pyridin]-6′-yl)acetamide], the IC50 was at least 1000 nM. The compound `COC(C)c1nccc(N2CC3(CC3)c3cnc(NC(C)=O)cc32)n1` (centres unmarked) [Example 131, N-(1′-(2-(1-methoxyethyl)pyrimidin-4-yl)-1′,2′-dihydrospiro[cyclopropane-1,3′-pyrrolo[3,2-c]pyridin]-6′-yl)acetamide] showed an IC50 of 10 to 100 nM. With `COC(C)(C)c1nccc(N2CC3(CC3)c3cnc(NC(C)=O)cc32)n1` [Example 132, N-(1′-(2-(2-methoxypropan-2-yl)pyrimidin-4-yl)-1′,2′-dihydrospiro[cyclopropane-1,3′-pyrrolo[3,2-c]pyridin]-6′-yl)acetamide], the half-inhibitory concentration (IC50) lay in the range of 10 to 100 nM.

The compound `CC(=O)Nc1cc2c(cn1)C1(CC1)CN2c1cc(C)[nH]c(=O)n1` [Example 134, N-(1′-(6-methyl-2-oxo-1,2-dihydropyrimidin-4-yl)-1′,2′-dihydrospiro[cyclopropane-1,3′-pyrrolo[3,2-c]pyridin]-6′-yl)acetamide] registered an IC50 of at least 1000 nM. The result for `CC(=O)Nc1cc2c(cn1)C1(CC1)CN2c1nc(C)cc(=O)[nH]1` [Example 135, N-(1′-(4-methyl-6-oxo-1,6-dihydropyrimidin-2-yl)-1′,2′-dihydrospiro[cyclopropane-1,3′-pyrrolo[3,2-c]pyridin]-6′-yl)acetamide] reads at least 1000 nM. Consider `CCN1CC(Oc2cc(N3CC4(CC4)c4cnc(NC(C)=O)cc43)nc(C(C)(F)F)n2)C1` [Example 148, N-(1′-(2-(1,1-difluoroethyl)-6-((1-ethylazetidin-3-yl)oxy)pyrimidin-4-yl)-1′,2′-dihydrospiro[cyclopropane-1,3′-pyrrolo[3,2-c]pyridin]-6′-yl)acetamide trifluoroacetate], for which the IC50 was at least 1000 nM.

With `CC(=O)Nc1cc2c(cn1)C1(CC1)CN2c1cc(C)nc(N2CC(C#N)(CF)C2)n1` [Example 218, N-(1′-(2-(3-cyano-3-(fluoromethyl)azetidin-1-yl)-6-methylpyrimidin-4-yl)-1′,2′-dihydrospiro[cyclopropane-1,3′-pyrrolo[3,2-c]pyridin]-6′-yl)acetamide], the IC50 was at most 10 nM. `COC1CCCN(c2nc(C)cc(N3CC4(CC4)c4cnc(NC(C)=O)cc43)n2)C1` (centres unmarked) [Example 230, N-(1′-(2-(3-methoxypiperidin-1-yl)-6-methylpyrimidin-4-yl)-1′,2′-dihydrospiro[cyclopropane-1,3′-pyrrolo[3,2-c]pyridin]-6′-yl)acetamide] displayed an IC50 of 100 to 1000 nM.

By IC50 is commonly meant the concentration that gives 50% inhibition. Read a low IC50 as greater potency in that assay.

(Values after US20260258032A1, “TYROSINE KINASE 2 INHIBITORS AND USES THEREOF” (BIOGEN MA INC., priority 2022, published 2026).)
